Experimental data published in paper PMC7010297, “How the initiating ribosome copes with ppGpp to translate mRNAs” (PLoS Biology, 2020).
“And” between values parts separate entries of the source, which are not always exact repeats. Equal entries are not always repeated. Where two headings read alike, the source gives them in different places.

Columns and labels:
[1] = tested on: mRNA translation (protein synthesis); experiment: In vitro translation in pure cell-free system (PURExpress, Lumio labelling); assay type: biochemical
Protocol: Fig 5 Permissive ppGpp-mediated inhibition of mRNA translation. (A) Scheme of the translating 70S complex. (B) In vitro translation of mTufA and mInfA derivatives harboring a coding sequence for the Lumio labelling system (Experimental conditions and analysis). […] Synthetized proteins were fluorescently labelled and resolved by 20% SDS-PAGE. The resulting images were analyzed by pixel densitometry using ImageJ [37] to estimate translation efficiencies (TEs). […] (D) Comparison of inhibitory constants for both mRNAs as measured during 30S IC formation (white) or overall translation efficiency (gray). Mean and standard deviations from three measurements are plotted (S1 Data). GTP, guanosine triphosphate; mInfA, InfA mRNA; mTufA, TufA mRNA; TE, translation efficiency.
In order to visualize overall protein synthesis, we used a coupled transcription-translation cell-free system. Reactions were carried out in 10 μL of the purified components from the PURExpress In Vitro Protein Synthesis Kit (E6800S/L, NEB, Ipswich, Massachusetts) with the corresponding templates. These reactions were incubated at 37°C for 2 hours. […] After incubation, sample processing and fluorescent labelling were carried out as described by the Lumio Green Detection Kit (LC6090, ThermoScientific, Waltham, Massachusetts) for in vitro reactions. Finally, 20 μL of labelled samples were loaded into 20% SDS-PAGE gels and visualized under a Blue-light LED transilluminator with orange filter (Cleaver Scientific LTD, Warwickshire, UK). Gel quantification was performed by pixel densitometry analysis using ImageJ software.

30S IC [2] = target: T1, 30S IC (Escherichia coli, UniProt P0A705); experiment: ppGpp tolerance of 30S IC formation by MST; assay type: binding; design: 6xHis (N); made in house
Protocol: (§1) Fig 7 SETIs and ppGpp tolerance. (A) Translation initiation efficiency as a function of mRNAs along five steps of transition from NS to S conditions. […] Symbols and error bars represent averages of three replicates and standard deviations, respectively (S1 Data). (C) Comparison of ppGpp tolerance as calculated from the ratio of translation initiation efficiencies found in the presence of 0.2 mM ppGpp over the efficiencies obtained in the absence of the alarmone (S1 Data). […] All 30S IC components are as in Fig 1. Dashed line indicates the average tolerance of all mRNAs lacking the SETI element.

[3] = tested on: mRNA translation (protein synthesis); experiment: In vitro translation in pure cell-free system (PURExpress, Lumio labelling); assay type: biochemical; details: 2 mM ppGpp; Fig 6G
30S IC [4] = target: T1, 30S IC; details: for T. initiation Average / T. initiation Replicates: Fig 7A
Protocol: as §1
The transition towards stringent response entails changes in the composition of all guanosine nucleotides. […] To inquire how the 30S IC responds during the transition from non-stringent (NS) to stringent (S) guanosine nucleotide conditions in the cell, we measured translation initiation along 5 combinations of guanosine nucleotides by thermophoresis, from NS to S conditions (Fig 7A).
The 30S complexes were reconstituted using pure subunits, IFs, tRNAi, mRNA, and nucleotides. The 30S subunits were reactivated by incubation in TAKM20 buffer (as TAKM3.5 but with 20 mM MgCl2) for 1 hour at 37°C prior to use. Generally, 30S ICs were formed by incubation at 37°C for 30 minutes in TAKM7 using 1 μM 30S subunits, 4 μM mRNA, 2 μM IF1, 1 μM IF2, 1.5 μM IF3, 0.5 μM Bpy-Met-tRNA^fMet, and 0.2 mM guanosine nucleotides, unless otherwise stated in the Results or figure captions. Ligand titrations were prepared using serial dilutions using 1:1 mixing of complexes containing the highest concentration of the titrant with complexes lacking only the ligand under investigation. The number of reactions were set up to cover a wide range of concentrations.
MST was measured on 10-μL reactions using standard capillaries (MO-K022, NanoTemper Technologies, Munich, Germany) on a Monolith NT.115 (NanoTemper Technologies, Munich, Germany) at monochromatic LED with power input of 30% and IR laser power of 40%. The local temperature perturbation was expected to be less than 3°C. All measurements were performed at room temperature (22 ± 2°C). Three to four replicates were measured for each investigated reaction to calculate mean and standard deviation. […] KD were calculated using a hyperbolic or quadratic function using Graphpad Prism 6.0 (GraphPad, San Diego, California) or software provided by NanoTemper.

T1 sequence (P0A705 whole entry, looked up): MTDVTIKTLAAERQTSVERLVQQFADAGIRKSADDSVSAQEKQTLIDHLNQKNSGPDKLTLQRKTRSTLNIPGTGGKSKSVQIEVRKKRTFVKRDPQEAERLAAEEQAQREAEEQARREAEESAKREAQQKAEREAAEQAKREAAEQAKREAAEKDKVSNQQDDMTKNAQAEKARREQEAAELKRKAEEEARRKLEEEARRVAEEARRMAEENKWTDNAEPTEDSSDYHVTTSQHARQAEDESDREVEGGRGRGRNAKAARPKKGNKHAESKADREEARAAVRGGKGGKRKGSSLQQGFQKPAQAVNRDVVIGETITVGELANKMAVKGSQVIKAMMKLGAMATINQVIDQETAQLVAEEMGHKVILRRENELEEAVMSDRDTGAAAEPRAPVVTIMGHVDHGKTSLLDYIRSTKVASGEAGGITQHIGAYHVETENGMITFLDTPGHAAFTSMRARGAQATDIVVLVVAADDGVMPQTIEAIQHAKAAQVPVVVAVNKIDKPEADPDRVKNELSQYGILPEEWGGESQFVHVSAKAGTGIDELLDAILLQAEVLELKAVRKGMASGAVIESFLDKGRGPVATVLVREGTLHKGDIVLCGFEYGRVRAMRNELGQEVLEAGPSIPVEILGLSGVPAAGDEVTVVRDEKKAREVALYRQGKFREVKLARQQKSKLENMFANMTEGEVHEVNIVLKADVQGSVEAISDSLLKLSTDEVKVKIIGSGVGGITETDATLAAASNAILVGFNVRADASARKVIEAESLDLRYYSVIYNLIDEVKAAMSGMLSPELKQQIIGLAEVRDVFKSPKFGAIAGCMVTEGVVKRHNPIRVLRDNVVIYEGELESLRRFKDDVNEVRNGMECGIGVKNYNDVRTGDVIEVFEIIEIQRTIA

Molecule: Nc1nc2c(ncn2[C@@H]2O[C@H](COP(=O)(O)OP(=O)(O)O)[C@@H](OP(=O)(O)OP(=O)(O)O)[C@H]2O)c(=O)[nH]1 [ppGpp]
- P.D. Average ([1]; mInfA, Log [ppGpp] 1.00): 2.85 a.u.x10^4
- P.D. Replicates (a.u.x10^4) ([1]; mInfA, Log [ppGpp] 1.00): 2.78 a.u.x10^4 and 2.92 a.u.x10^4 and 2.86 a.u.x10^4
- P.D. Average ([1]; mInfA, Log [ppGpp] 2.40): 2.28 a.u.x10^4
- P.D. Replicates (a.u.x10^4) ([1]; mInfA, Log [ppGpp] 2.40): 2.16 a.u.x10^4 and 2.34 a.u.x10^4 and 2.33 a.u.x10^4
- P.D. Average ([1]; mInfA, Log [ppGpp] 2.70): 1.67 a.u.x10^4
- P.D. Replicates (a.u.x10^4) ([1]; mInfA, Log [ppGpp] 2.70): 1.54 a.u.x10^4 and 1.80 a.u.x10^4 and 1.68 a.u.x10^4
- P.D. Average ([1]; mInfA, Log [ppGpp] 3.00): 0.00 a.u.x10^4
- P.D. Replicates (a.u.x10^4) ([1]; mInfA, Log [ppGpp] 3.00): 0.00 a.u.x10^4
- P.D. Average ([1]; mInfA, Log [ppGpp] 3.30): 0.00 a.u.x10^4
- P.D. Replicates (a.u.x10^4) ([1]; mInfA, Log [ppGpp] 3.30): 0.00 a.u.x10^4
- P.D. Average ([1]; mInfA, Log [ppGpp] 3.60): 0.00 a.u.x10^4
- P.D. Replicates (a.u.x10^4) ([1]; mInfA, Log [ppGpp] 3.60): 0.00 a.u.x10^4
- Ki ([1]; mRNA mInfA, read-out: Translation Efficiency Ki (μM), replicates): 0.816 µM and 0.72 µM and 0.838 µM
- Ki ([1]; mRNA mInfA, read-out: Translation Efficiency Ki Average): 0.791 µM
- Ki ([1]; mRNA mTufA, read-out: Translation Efficiency Ki (μM), replicates): 2.23 µM and 2.32 µM and 2.09 µM
- Ki ([1]; mRNA mTufA, read-out: Translation Efficiency Ki Average): 2.21 µM
- P.D. Average ([1]; mTufA, Log [ppGpp] 1.00): 6.41 a.u.x10^4
- P.D. Replicates (a.u.x10^4) ([1]; mTufA, Log [ppGpp] 1.00): 6.33 a.u.x10^4 and 6.50 a.u.x10^4 and 6.41 a.u.x10^4
- P.D. Average ([1]; mTufA, Log [ppGpp] 2.40): 5.17 a.u.x10^4
- P.D. Replicates (a.u.x10^4) ([1]; mTufA, Log [ppGpp] 2.40): 5.12 a.u.x10^4 and 5.25 a.u.x10^4 and 5.15 a.u.x10^4
- P.D. Average ([1]; mTufA, Log [ppGpp] 2.70): 4.76 a.u.x10^4
- P.D. Replicates (a.u.x10^4) ([1]; mTufA, Log [ppGpp] 2.70): 4.72 a.u.x10^4 and 4.86 a.u.x10^4 and 4.70 a.u.x10^4
- P.D. Average ([1]; mTufA, Log [ppGpp] 3.00): 3.38 a.u.x10^4
- P.D. Replicates (a.u.x10^4) ([1]; mTufA, Log [ppGpp] 3.00): 3.31 a.u.x10^4 and 3.47 a.u.x10^4 and 3.35 a.u.x10^4
- P.D. Average ([1]; mTufA, Log [ppGpp] 3.30): 2.72 a.u.x10^4
- P.D. Replicates (a.u.x10^4) ([1]; mTufA, Log [ppGpp] 3.30): 2.68 a.u.x10^4 and 2.81 a.u.x10^4 and 2.66 a.u.x10^4
- P.D. Average ([1]; mTufA, Log [ppGpp] 3.60): 1.21 a.u.x10^4
- P.D. Replicates (a.u.x10^4) ([1]; mTufA, Log [ppGpp] 3.60): 1.18 a.u.x10^4 and 1.24 a.u.x10^4 and 1.21 a.u.x10^4
- Ki (30S IC [2]; mRNA mInfA, read-out: 30S IC Ki (μM), replicates): 0.598 µM and 0.576 µM and 0.587 µM
- Ki (30S IC [2]; mRNA mInfA, read-out: 30S IC Ki Average): 0.587 µM
- Ki (30S IC [2]; mRNA mTufA, read-out: 30S IC Ki (μM), replicates): 2.19 µM and 2.21 µM and 2.22 µM
- Ki (30S IC [2]; mRNA mTufA, read-out: 30S IC Ki Average): 2.21 µM

B1: mTufA: TufA mRNA with full-length 5′ UTR, in vitro transcribed, codes for EF-Tu (nucleic acid)
chain: GGUUCUAUCGCCUUUAAAGAAGGCUUUAAGAAAGCGAAACCAGUUCUGCUUGAGCCGAUCAUGAAGGUUGAAGUAGAAACUCCGGAAGAGAACACCGGUGACGUUAUCGGUGACUUGAGCCGUCGUCGUGGUAUGCUCAAAGGUCAGGAAUCUGAAGUUACUGGCGUUAAGAUCCACGCUGAAGUACCGCUGUCUGAAAUGUUCGGAUACGCAACUCAGCUGCGUUCUCUGACCAAAGGUCGUGCAUCAUACACUAUGGAAUUCCUGAAGUAUGAUGAAGCGCCGAGUAACGUUGCUCAGGCCGUAAUUGAAGCCCGUGGUAAAUAAGCCUAAGGGUUAAUACCAAAGUCCCGUGCUCUCUCCUGAAGGGGAGAGCACUAUAGUAAGGAAUAUAGCCGUGUCUAAAGAAAAAUUUGAACG
- Translation Avg ([1]; 2 mM ppGpp, Fig 6G): 0.27 a.u.
- Translation Avg ([1]; No ppGpp, Fig 6G): 0.83 a.u.
- Translation Replicate ([1]; No ppGpp, Fig 6G): 0.83 a.u.
- translation higher than mInfA ([1]; in the absence of ppGpp): 3 fold
- Translation Replicate [3]: 0.27 a.u.
- ppGpp tolerance (30S IC [2]; 30S ICs with 4-fold excess of ppGpp (0.2 mM) over GTP vs without alarmone): up to 25%
- T. initiation Average (30S IC [4]; NS to S 1): 81.23%
- T. initiation Replicates (30S IC [4]; NS to S 1): 79.55% and 82.59% and 81.55%
- T. initiation Average (30S IC [4]; NS to S 2): 75.89%
- T. initiation Replicates (30S IC [4]; NS to S 2): 72.98% and 77.43% and 77.26%
- T. initiation Average (30S IC [4]; NS to S 3): 60.14%
- T. initiation Replicates (30S IC [4]; NS to S 3): 59.08% and 60.37% and 60.97%
- T. initiation Average (30S IC [4]; NS to S 4): 45.96%
- T. initiation Replicates (30S IC [4]; NS to S 4): 44.86% and 46.36% and 46.65%
- T. initiation Average (30S IC [4]; NS to S 5): 23.01%
- T. initiation Replicates (30S IC [4]; NS to S 5): 22.61% and 23.62% and 22.79%
- translation initiation efficiency (30S IC formation retained) at S conditions (30S IC [4]; S: 1 mM ppGpp, 0.25 mM pppGpp, 0.14 mM GTP, 0.05 mM GDP): 25%
